Species on record: Rattus norvegicus
Assay: Open TG-GATES - Regimen: Single
Type: toxicity, organism-based, Sprague-Dawley
Design: regimen Single, gender Male, age 6 weeks
Settings: in vivo, po, route gavage; for gamma-GTP / ALP / ALT / AST / BUN / CRE / Ca / Cl / DBIL / GLC / IP / K / LDH / Na / PL / RALB / TBIL / TC / TG / TP: tissue Plasma; for Bas / Eos / Fbg / Hb / Ht / Lym / MCHC / MCV / Mono / Neu / PT / Plat / RBC / Ret / WBC / APTT: tissue Blood
[1] = 300 mg/kg, 3 h, dose level Middle
[2] = 300 mg/kg, 6 h, dose level Middle
[3] = 300 mg/kg, 9 h, dose level Middle
[4] = 300 mg/kg, 24 h, dose level Middle
[5] = 1000 mg/kg, 3 h, dose level High
[6] = 1000 mg/kg, 6 h, dose level High
[7] = 1000 mg/kg, 9 h, dose level High
[8] = 1000 mg/kg, 24 h, dose level High

SMILES: O=C(O)c1cccnc1 [NIACIN]
- gamma-GTP (100 mg/kg, 24 h, dose level Low): 1 IU/L
- Bas [1]: 0%
- Eos [1]: 1%
- Fbg [1]: 304.8 mg/dL
- Hb [1]: 13.1 g/dL
- Ht [1]: 39.9%
- Lym [1]: 79.2%
- MCHC [1]: 32.9%
- MCV [1]: 64.5 fL
- Mono [1]: 2.4%
- Neu [1]: 16.2%
- PT [1]: 16 s
- Plat [1]: 118.4 x10_4/uL
- RBC [1]: 620.8 x10_4/ul
- Ret [1]: 8.5%
- WBC [1]: 82.2 x10_2/uL
- ALP [1]: 1554 IU/L
- ALT [1]: 38.4 IU/L
- AST [1]: 73 IU/L
- BUN [1]: 13.2 mg/dL
- CRE [1]: 0.2 mg/dL
- Ca [1]: 10.8 mg/dL
- Cl [1]: 105.6 meq/L
- DBIL [1]: 0.002 mg/dL
- GLC [1]: 179.4 mg/dL
- IP [1]: 9.3 mg/dL
- K [1]: 3.7 meq/L
- LDH [1]: 184 IU/L
- Na [1]: 140.2 meq/L
- PL [1]: 120.6 mg/dL
- RALB [1]: 3 g/dL
- TBIL [1]: 0 mg/dL
- TC [1]: 73.6 mg/dL
- TG [1]: 28.8 mg/dL
- TP [1]: 5.6 g/dL
- gamma-GTP [1]: 1.2 IU/L
- Bas [2]: 0%
- Eos [2]: 0.8%
- Fbg [2]: 329.8 mg/dL
- Hb [2]: 13.6 g/dL
- Ht [2]: 41.4%
- Lym [2]: 73%
- MCHC [2]: 32.9%
- MCV [2]: 62.9 fL
- Mono [2]: 2.4%
- Neu [2]: 23%
- PT [2]: 16.6 s
- Plat [2]: 119.6 x10_4/uL
- RBC [2]: 657.8 x10_4/ul
- Ret [2]: 8.4%
- WBC [2]: 82.7 x10_2/uL
- ALP [2]: 1294 IU/L
- ALT [2]: 40.2 IU/L
- AST [2]: 71.4 IU/L
- BUN [2]: 12.6 mg/dL
- CRE [2]: 0.1 mg/dL
- Ca [2]: 10.6 mg/dL
- Cl [2]: 106.4 meq/L
- DBIL [2]: 0.002 mg/dL
- GLC [2]: 182.4 mg/dL
- IP [2]: 9.6 mg/dL
- K [2]: 3.7 meq/L
- LDH [2]: 211.8 IU/L
- Na [2]: 140.6 meq/L
- PL [2]: 125.8 mg/dL
- RALB [2]: 3 g/dL
- TBIL [2]: 0.002 mg/dL
- TC [2]: 76.2 mg/dL
- TG [2]: 31 mg/dL
- TP [2]: 5.6 g/dL
- gamma-GTP [2]: 1.4 IU/L
- APTT [3]: 22.4 s
- Bas [3]: 0%
- Eos [3]: 0.8%
- Fbg [3]: 304.4 mg/dL
- Hb [3]: 13.1 g/dL
- Ht [3]: 39.5%
- Lym [3]: 71.8%
- MCHC [3]: 33.3%
- MCV [3]: 62.6 fL
- Mono [3]: 2.2%
- Plat [3]: 114.7 x10_4/uL
- RBC [3]: 631.4 x10_4/ul
- Ret [3]: 8.5%
- WBC [3]: 72.8 x10_2/uL
- ALP [3]: 1319 IU/L
- ALT [3]: 38.4 IU/L
- AST [3]: 72.2 IU/L
- CRE [3]: 0.2 mg/dL
- Ca [3]: 10.9 mg/dL
- Cl [3]: 105.2 meq/L
- DBIL [3]: 0.006 mg/dL
- GLC [3]: 176 mg/dL
- IP [3]: 9.1 mg/dL
- K [3]: 4.2 meq/L
- LDH [3]: 169.8 IU/L
- Na [3]: 140.8 meq/L
- PL [3]: 124.8 mg/dL
- RALB [3]: 2.8 g/dL
- TBIL [3]: 0.004 mg/dL
- TC [3]: 70.2 mg/dL
- TG [3]: 50.4 mg/dL
- TP [3]: 5.3 g/dL
- gamma-GTP [3]: 1.6 IU/L
- Bas [4]: 0%
- Eos [4]: 1%
- Fbg [4]: 343 mg/dL
- Hb [4]: 13.7 g/dL
- Ht [4]: 40%
- Lym [4]: 78.4%
- MCHC [4]: 34.2%
- MCV [4]: 62.5 fL
- Mono [4]: 2.6%
- Neu [4]: 16.6%
- PT [4]: 16 s
- Plat [4]: 120.8 x10_4/uL
- RBC [4]: 640 x10_4/ul
- Ret [4]: 6.4%
- WBC [4]: 98.1 x10_2/uL
- ALP [4]: 1858 IU/L
- AST [4]: 70.4 IU/L
- BUN [4]: 14 mg/dL
- CRE [4]: 0.1 mg/dL
- Ca [4]: 10.7 mg/dL
- Cl [4]: 104.4 meq/L
- DBIL [4]: 0 mg/dL
- GLC [4]: 192 mg/dL
- IP [4]: 7.9 mg/dL
- K [4]: 4.1 meq/L
- LDH [4]: 172.2 IU/L
- Na [4]: 139.8 meq/L
- PL [4]: 156.8 mg/dL
- RALB [4]: 3 g/dL
- TBIL [4]: 0 mg/dL
- TC [4]: 79.4 mg/dL
- TG [4]: 134.4 mg/dL
- TP [4]: 5.6 g/dL
- gamma-GTP [4]: 1.4 IU/L
- Bas [5]: 0%
- Eos [5]: 1.2%
- Fbg [5]: 303 mg/dL
- Hb [5]: 13.2 g/dL
- Lym [5]: 75.2%
- MCHC [5]: 32.8%
- MCV [5]: 62.8 fL
- Mono [5]: 2.4%
- Neu [5]: 20%
- PT [5]: 16.2 s
- Plat [5]: 114.5 x10_4/uL
- RBC [5]: 642.4 x10_4/ul
- Ret [5]: 8.7%
- WBC [5]: 70.3 x10_2/uL
- ALP [5]: 1421 IU/L
- ALT [5]: 43.6 IU/L
- AST [5]: 79.4 IU/L
- BUN [5]: 12.2 mg/dL
- CRE [5]: 0.2 mg/dL
- Ca [5]: 10.6 mg/dL
- Cl [5]: 106.2 meq/L
- DBIL [5]: 0 mg/dL
- GLC [5]: 187 mg/dL
- IP [5]: 9.4 mg/dL
- K [5]: 3.6 meq/L
- LDH [5]: 226.4 IU/L
- Na [5]: 140.8 meq/L
- PL [5]: 118.2 mg/dL
- RALB [5]: 3.1 g/dL
- TBIL [5]: 0 mg/dL
- TC [5]: 72.4 mg/dL
- TG [5]: 24.4 mg/dL
- TP [5]: 5.6 g/dL
- gamma-GTP [5]: 1.2 IU/L
- Bas [6]: 0%
- Eos [6]: 1%
- Fbg [6]: 311 mg/dL
- Hb [6]: 13.6 g/dL
- Ht [6]: 41.3%
- Lym [6]: 75.8%
- MCHC [6]: 32.8%
- MCV [6]: 64.6 fL
- Mono [6]: 2%
- Neu [6]: 20.4%
- PT [6]: 16.4 s
- Plat [6]: 121.3 x10_4/uL
- RBC [6]: 641.2 x10_4/ul
- Ret [6]: 8.2%
- WBC [6]: 74.6 x10_2/uL
- ALP [6]: 1566.4 IU/L
- ALT [6]: 35 IU/L
- AST [6]: 74.6 IU/L
- BUN [6]: 12.4 mg/dL
- CRE [6]: 0.2 mg/dL
- Ca [6]: 10.6 mg/dL
- Cl [6]: 107.6 meq/L
- DBIL [6]: 0 mg/dL
- GLC [6]: 181 mg/dL
- IP [6]: 9.2 mg/dL
- K [6]: 3.8 meq/L
- LDH [6]: 210.8 IU/L
- Na [6]: 139.6 meq/L
- PL [6]: 115.2 mg/dL
- RALB [6]: 3 g/dL
- TBIL [6]: 0 mg/dL
- TC [6]: 69.6 mg/dL
- TG [6]: 27.8 mg/dL
- TP [6]: 5.6 g/dL
- gamma-GTP [6]: 1.4 IU/L
- APTT [7]: 22.8 s
- Bas [7]: 0%
- Eos [7]: 1%
- Fbg [7]: 324 mg/dL
- Hb [7]: 13.3 g/dL
- Lym [7]: 67%
- MCHC [7]: 33%
- MCV [7]: 62 fL
- Mono [7]: 1.8%
- Neu [7]: 29.8%
- PT [7]: 15.6 s
- Plat [7]: 116.6 x10_4/uL
- RBC [7]: 651 x10_4/ul
- Ret [7]: 8%
- WBC [7]: 71.1 x10_2/uL
- ALP [7]: 1673.4 IU/L
- ALT [7]: 41.2 IU/L
- AST [7]: 75.2 IU/L
- BUN [7]: 13 mg/dL
- CRE [7]: 0.2 mg/dL
- Ca [7]: 10.8 mg/dL
- Cl [7]: 106.8 meq/L
- DBIL [7]: 0.004 mg/dL
- GLC [7]: 171.2 mg/dL
- IP [7]: 9.4 mg/dL
- K [7]: 3.9 meq/L
- LDH [7]: 198.2 IU/L
- Na [7]: 139.8 meq/L
- PL [7]: 101.2 mg/dL
- RALB [7]: 3.1 g/dL
- TBIL [7]: 0.002 mg/dL
- TC [7]: 60.6 mg/dL
- TG [7]: 17.2 mg/dL
- TP [7]: 5.5 g/dL
- gamma-GTP [7]: 1.2 IU/L
- Bas [8]: 0%
- Eos [8]: 1%
- Fbg [8]: 319 mg/dL
- Hb [8]: 13.3 g/dL
- Ht [8]: 39.7%
- Lym [8]: 71.4%
- MCHC [8]: 33.4%
- MCV [8]: 63.3 fL
- Mono [8]: 3%
- Neu [8]: 23.2%
- PT [8]: 15.9 s
- Plat [8]: 117.3 x10_4/uL
- RBC [8]: 627 x10_4/ul
- Ret [8]: 7.2%
- WBC [8]: 92.1 x10_2/uL
- ALP [8]: 1735.4 IU/L
- ALT [8]: 53 IU/L
- AST [8]: 75.4 IU/L
- BUN [8]: 16.6 mg/dL
- CRE [8]: 0.2 mg/dL
- Ca [8]: 10.5 mg/dL
- Cl [8]: 104.4 meq/L
- DBIL [8]: 0 mg/dL
- GLC [8]: 188.6 mg/dL
- IP [8]: 8.1 mg/dL
- K [8]: 4.1 meq/L
- LDH [8]: 174.8 IU/L
- Na [8]: 139.6 meq/L
- PL [8]: 144.2 mg/dL
- RALB [8]: 3 g/dL
- TBIL [8]: 0 mg/dL
- TC [8]: 70.6 mg/dL
- TG [8]: 119.2 mg/dL
- TP [8]: 5.4 g/dL
- gamma-GTP [8]: 1 IU/L

From ChEMBL document CHEMBL3885861, “Open TG-GATES”
